The values below come from publication PMC4627231, “Targeting the sugar metabolism of tumors with a first-in-class 6-phosphofructo-2-kinase (PFKFB4) inhibitor” (Oncotarget, 2015).

For data set [1], the system named is H460 cells. Kind of data set: Cell cycle analysis by flow cytometry (PI). In kind it is cell-based, human. As to conditions: 10μM 5MPN. How it is done:
(§1) To measure apoptosis, cells were stained with annexin V and propidium iodide and examined as previously described. For cell cycle experiments, cells were detached, washed with cold PBS and fixed in 70% ethanol at 4°C for 30 minutes. The cells then were pelleted by centrifugation, resuspended in PBS containing PI and RNase A, incubated at 37°C in the dark for 30 minutes and analyzed by flow cytometry (BD FACSCalibur). Data were analyzed using FlowJo software (TREE STAR Inc.). Results were calculated as the mean ± SD of three experiments and data shown are representative of three independent experiments.
On the technique in general: In flow cytometry, cells or beads pass a laser one at a time.

The next data set relates to C57BL/6 mice. Description: Two-week oral toxicity study. It is filed as in vivo. To be noted: 120 mg/kg PO, two weeks. How it is done:
Given the potential usefulness of oral administration in terms of cost and convenience, we elected to pursue this route in subsequent toxicity and efficacy pre-clinical studies. Initially, we dosed C57BL/6 mice with 120 mg/kg PO (dose chosen based on a dose escalation trial) for two weeks and analyzed the effect on complete blood counts, electrolytes, hepatic and renal function, body mass and the gross and histological appearance of the brain, heart, lungs, liver, kidneys and spleen. […] We confirmed that 5MPN caused a G1 arrest in LLC cells in vitro similar to H460 cells (Figure 4G) and then examined the number of Ki67-positive cells since Ki67 expression correlates with later S and G2 phases of the cell cycle.

Data set [2] relates to Lewis lung carcinomas (LLC). Kind of data set: Lewis lung carcinoma tumor growth in syngeneic mice. In kind it is in vivo, C57BL/6 mice. As to conditions: 120 mg/kg daily by gavage. The procedure: For xenograft studies, LLC or H460 cells collected from exponential growth phase culture were washed and resuspended in PBS. Groups of female C57BL/6 mice were injected with LLC cells (n=10 per group, s.c., 1×10^6 cells) and groups of female BALB/c athymic mice (Charles River) were injected with H460 cells (n=10 per group, s.c, 5 × 10^6 cells). Tumor masses were determined in a blinded fashion with Vernier calipers using the formula: mass (mg) = (width, mm)^2 X (length, mm)/2 as previously described. When tumor masses were 150-200 mg, mice were randomized to daily DMSO or 5MPN (in 30% Captisol, 100 μl, by gavage). Tumor measurements and body weights were followed daily. All data are expressed as the mean ± SD of two experiments. Statistical significance was assessed by the two-sample t test (independent variable).

Data set [3] concerns normal human bronchial epithelial (NHBE) cells. Kind of data set: Viable cell count (trypan blue exclusion). In kind it is cell-based. As to conditions: live cells counted at 48 hours. The procedure:
Viability was determined using trypan blue exclusion as previously described. Cells were incubated in 20% trypan blue (Sigma) for 5 minutes. Cells excluding trypan blue were counted using a standard hemocytometer (Hausser Scientific) to determine total numbers of viable cells. Data are expressed as mean ± SD of three experiments.

The test system of data set [4] is Ki67-positive cells in LLC xenografts. Description: Ki67 immunohistochemistry of LLC tumors. It is filed as in vivo, C57BL/6 mice. To be noted: oral administration. The procedure:
Five μm mounted sections of formalin-fixed, paraffin-embedded LLC tumor tissues were processed as previously described and then incubated with anti-Ki-67 primary antibody (Abcam) overnight, followed by HRP-linked goat anti-rabbit secondary antibody (1:300, Pierce). Sections were developed with 3,3′-diaminobenzidine tetrahydrochloride and counterstained as previously described. Slides were scanned using a ScanScope XT Digital Slide Scanner (Aperio), data analyzed with the positive pixel count algorithm (ImageScope, Aperio) and a minimum of 5 fields (20x magnification) were quantified for each tumor section. The data are depicted as % positive pixels/total pixels ± SD.

Data set [5] concerns H460 cells. Kind of data set: Apoptosis by flow cytometry (annexin V / propidium iodide). It is filed as cell-based, human. As to conditions: 10μM 5MPN. The procedure:
as §1

Data set [6] in a line: Pharmacokinetic profile after IV and oral administration. It is filed as in vivo. To be noted: mouse, female C57BL/6 mice, plasma. How it is done: The pharmacokinetic profile was determined in female C57BL/6 mice (Charles River Laboratories) following IV and oral administration of 5MPN. Using only female mice lowered the animal numbers required for meaningful results without issues of potential gender differences in exposure. Eight time points (n=3 per time point) were used to determine indicated PK parameters calculated using WinNonLin v5.0. Plasma samples were extracted using acetonitrile and analyzed by LC/MS-MS using a PhenomexSynergi Polar-RP 4micron 50×2.0 mm column eluted with a biphasic mobile phase (0.5% formic acid in acetonitrile and water).

Another data set relates to glycolysis in H460 cells. Kind of data set: Glycolysis assay (3H2O from 5-[3H]glucose). It is filed as cell-based, human. To be noted: 10 μM, 6-72 hours. How it is done:
Cells growing in 6-well plates were incubated in 500 μl of complete medium containing 1 μCi of 5-[^3H]glucose per well for 60 min in 5% CO2 at 37°C. Media was collected, ^3H2O formed via glycolysis from the 5-[^3H]glucose measured and counts normalized as previously described. All data are expressed as the mean ± SD of three experiments. Statistical significance was assessed by the two-sample t test (independent variable).

The subject of data set [7] is Large T antigen-immortalized, tamoxifen-inducible PFKFB4-/- fibroblasts. Description: Viable cell count (trypan blue exclusion). It is filed as cell-based, mice. To be noted: fibroblasts ± 10 μM 4HT, 10 μM 5MPN, 24 hours. The source says: H460, H1299, H441, H522 and A549 non-small cell lung cancer (NSCLC), MDA-MB-231 (breast), LNCaP (prostatic) and HCT116 (colon) adenocarcinoma and Lewis lung carcinoma (LLC) cell lines were obtained from ATCC (authenticated by STR analysis) and were used within 6 months of acquisition. PFKFB4^−/− ear pinna fibroblasts isolated from TamCre/loxP/PFKFB4^−/− mice were immortalized as described previously. Normal bronchial epithelial cells (NHBE) were obtained from Lonza and NHBE cells expressing telomerase, SV40 large T antigen and activated Ras (hT/LT/Ras) were a gift from Dr. B. J. Rollins, Dana Farber Cancer Institute. All cell lines were tested and found negative for mycoplasma (PCR Mycoplasma Detection Kit, ABM). Cell lines were grown in DMEM (A549, LNCaP, MDA-MB-231, LLC and PFKFB4^−/−), RPMI 1640 (H460, H1299, H441, H522) and McCoy's 5A media (HCT116) (all from Invitrogen) containing 10% fetal calf serum (Hyclone). NHBE and hT/LT/Ras cells were grown in BEGM containing SingleQuots (Lonza). All lines were cultured at 37°C in 5% CO2. […]
Viability was determined using trypan blue exclusion as previously described. […] Cells excluding trypan blue were counted using a standard hemocytometer (Hausser Scientific) to determine total numbers of viable cells. Data are expressed as mean ± SD of three experiments.

For the compound `COc1cccc2c(NCCCCCO[N+](=O)[O-])ccnc12` [Compound 5MPN, 5-(n-(8-methoxy-4-quinolyl)amino)pentyl nitrate], in the data set with H460 cells [1], the cell cycle arrest entry is reported as “marked G1 arrest”. Moreover, in the data set with C57BL/6 mice, the “signs of toxicity (blood counts, electrolytes, hepatic and renal function, body mass, organ histology, behavior)” value is on record as “no signs of toxicity”. Also, the tumor growth entry in data set [2] (LLC in syngeneic C57BL/6 mice) was “suppressed the growth”. For the same compound, in [2] (LLC-bearing C57BL/6 mice), the body weight entry is “without affecting body weight”. Further, the “effect on cell growth” value in data set [3] is given as “virtually unaffected”. In data set [4], the Ki67-positive cells entry was “reduction”. Moreover, the “increase in apoptotic cells” value in the data set on H460 cells [5] is given as “only a minimal increase”. Besides, in data set [6] (iv, 2 mg/kg, I.V.), the area under the curve AUC(0-inf) came to 114 ng·h/mL, the AUC(0-t) stood at 111 ng·h/mL, the C0 was 249 ng/mL and the half-life was 0.387 h. The Vd in data set [6] (iv, 2 mg/kg, I.V., read-out: Vss) worked out at 8.48 L/kg. For the same compound, in data set [6] (iv, I.V.), the mean residence time (MRT) is 0.485 h and the clearance was 291 mL/min/kg. For the same compound, the mean residence time (MRT) in data set [6] (po, 10 mg/kg, P.O) came out at 2.31 h. In data set [6] (po, P.O), the total exposure AUC(0-inf) worked out at 234 ng·h/mL, the AUC(0-t) was found to be 225 ng·h/mL, the Cmax is 98.7 ng/mL and the bioavailability came to 40.9%. Moreover, in data set [6] (po, P.O), the half-life is 1.67 h. For the same compound, the effect on glycolysis entry with glycolysis in H460 cells is listed as “reduced”. Further, the “effect of genomic deletion of Pfkfb4 on anti-proliferative effect” value in data set [7] is listed as “sensitized”.

The AUC(0-inf) is the area under the concentration-time curve extrapolated to infinity. Broadly, the AUC(0-t) is exposure summed from dosing to a finite time, without extrapolation to infinity. By half-life is commonly meant how long it takes for the measured level to halve. The MRT is the average time that molecules of a dose stay in the body. The term Cmax denotes the peak of the concentration-time curve. In general, bioavailability refers to the share of a dose that reaches the circulation, judged against a reference dose that is usually intravenous.
